Where a name gives a salt, the structure may show the parent alone.
Assays:
cathepsin D (CTSD) = molecular target: T1, cathepsin D (CTSD) (Homo sapiens, UniProt P07339); assay: Cathepsin D (CTSD) peptidase activity in lysates of treated HepG2 cells (MOCAc quenched fluorogenic substrate); type: cell-based
T1 construct: cell lysates (1 μg of total proteins) were pre-incubated with citrate buffer pH 4.0; endogenous in cells; host or cells: HepG2
Procedure: (§1) Lysosomal functions was investigated in a hepatocellular carcinoma (HCC) cell line HepG2 after 6 hours and 24 hours of treatment with compound 2-3 (the hydrochloride salt form of compound 2-2) using functional assays of some lysosomal enzymes activity: two cysteine proteinases: cathepsin B (CTSB) and cathepsin L (CTSL), and one aspartic proteinase: cathepsin D (CTSD). Two sets of three concentrations of compound 2-3 (1 μM, 2 μM, and 4 μM for 6 hours, and 0.5 μM, 1 μM and 2 μM for 24 hours) were tested at least in triplicate and four independent experiments were performed. Salinomycin (7.5 μM for 6 hours and 24 hours) was used as a positive control.
(§2) The HepG2 cell line was maintained in DMEM (Dulbecco's Modified Eagle Media) high glucose (Cat #L0103-500, Dutscher) containing 1% penicillin-streptomycin (Cat #P06-07100, Dutscher) and 10% FBS (Fetal Bovine Serum) (Cat #11543407, Life Technologies). Cells were cultured at 37° C. with 5% CO2.
(§3) The day before the experiment, 6-well plates (Cat #353046, Dutscher) with 250,000 cells in 2.7 mL of medium per well were prepared.
(§4) Compound 2-3 was dissolved with filtrated H2O mQ to make a 10 mM stock solution and serial working solutions (10× solutions) were prepared with the diluent (=culture medium with 0.4% H2O mQ) at 5 μM, 10 μM, 20 μM and 40 μM: the “dilution 1” is made from the 10 mM stock solution in the culture medium and the following serial dilutions were made in the diluent to maintain a constant percentage of H2O.
Salinomycin [CAS 53003-10-4] was used as positive control and was dissolved with methanol to make a 10 mM stock solution and a 10× solution at 75 μM was prepared with the culture medium. […]
After 6 hours or 24 hours of cells treatment, the medium was removed from each well. […] Total protein concentration was assessed using the Bradford reagent (Cat #B6916-500ML, Sigma-Aldrich) and cellular lysates were stored at −80° C. until catalytic activity measurement. […]

cathepsin B (CTSB) = molecular target: T2, cathepsin B (CTSB) (Homo sapiens, UniProt P07858); assay: Cathepsin B (CTSB) catalytic activity in lysates of treated HepG2 cells (Z-RR-AMC substrate); type: cell-based; conditions: for CTSB activity versus NT: 6 hours of treatment
T2 construct: endogenous in cells; host or cells: HepG2
Procedure: as §1, §2, §3, §4
Salinomycin [CAS 53003-10-4] was used as positive control and was dissolved with methanol to make a 10 mM stock solution and a 10× solution at 75 μM was prepared with the culture medium.
300 μL of compound 2-3 10× solutions (solutions at 10 μM, 20 μM and 40 μM for 6 hours of treatment and solutions at 5 μM, 10 μM and 20 μM for 24 hours of treatment) or 300 μL of diluent (=non-treated (NT) condition) or 300 μL of Salinomycin 10× solution were dispensed in the appropriate wells (4 wells/condition). After cells treatment, 6-well plates were returned to incubator for 6 hours or 24 hours.
After 6 hours or 24 hours of cells treatment, the medium was removed from each well. The cells were carefully rinsed with PBS (phosphate-buffered saline, Cat #L0615-500, Dutscher) and detached with 500 μL per well of a trypsin solution. After 5 min of trypsin (Cat #L0930-100, Dutscher) incubation at 37° C., 800 μL of medium was added per well and transferred to a 1.5 mL tube. Then, 800 μL of PBS was used to rinse each well and the corresponding solution was pooled in each corresponding 1.5 mL tube. […] Total protein concentration was assessed using the Bradford reagent (Cat #B6916-500ML, Sigma-Aldrich) and cellular lysates were stored at −80° C. until catalytic activity measurement. […]

T1 sequence (P07339 65-412): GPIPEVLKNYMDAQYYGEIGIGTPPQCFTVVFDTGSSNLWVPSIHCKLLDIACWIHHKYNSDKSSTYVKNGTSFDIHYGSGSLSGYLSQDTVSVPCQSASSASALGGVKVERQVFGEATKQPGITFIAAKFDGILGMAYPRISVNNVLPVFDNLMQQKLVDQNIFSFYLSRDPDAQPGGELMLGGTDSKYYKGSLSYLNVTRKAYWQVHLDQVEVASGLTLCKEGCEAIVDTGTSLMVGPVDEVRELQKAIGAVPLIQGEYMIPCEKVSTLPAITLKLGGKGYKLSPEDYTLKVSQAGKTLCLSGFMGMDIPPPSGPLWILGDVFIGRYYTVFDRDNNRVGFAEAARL

CC(C)(C)NC1CCN(c2cc(NCc3ccc(Cl)cc3)nc3ccccc23)CC1 [2-3, 2-(4-chlorobenzylamino)-4-(4-tert-butylaminopiperidin-1-yl)-quinoline Hydrochloride Salt]
CTSD activity versus NT (cathepsin D (CTSD); HepG2, 4 μM, 6 hours of treatment): 60.6%
inhibition of cathepsin D (CTSD) compare to the control (cathepsin D (CTSD); HepG2, 4 μM for 6 hours and 2 μM for 24 hours, p<0.05): statistically significant
CTSB activity versus NT (cathepsin B (CTSB); HepG2, 2 μM): 75.4%
CTSB activity versus NT (cathepsin B (CTSB); HepG2, 4 μM): 54.0%
inhibition of cathepsin B (CTSB) compare to the control (cathepsin B (CTSB); HepG2, 2 μM, 4 μM for 6 hours and 2 μM for 24 hours, p<0.05): statistically significant

Reference: patent publication US11261189B2, “Substituted 2,4 diamino-quinoline as new medicament for fibrosis, autophagy and cathepsins B (CTSB), L (CTSL) and D (CTSD) related diseases” (Genoscience Pharma, priority 2018, dated 2022)
